“Also recorded” adds a separate entry of the source. Like-named read-outs stand apart in the source and are kept apart here.
Experiments:
[1] = tested on: atopic disease model induced by 2,4-dinitro-fluorobenzene; conditions: cited from earlier work; for activity in atopic disease model: oral administration, ingredients isolated from oolong tea
[2] = tested on: intestinal polyp formation induced by azoxymethane (AOM); conditions: 2.5 mg/kg, same dosage as indomethacin; cited from earlier work
[3] = Liquid-liquid partition with water and n-BuOH; type: physicochemical; conditions: qualitative
Method: 1 g of oolong tea leaves prepared from Shizu 7132 was ground and was subjected to extract with MeOH, 50%-MeOH and water (1 ml) under reflux. After concentrating, drying and solidifying the extract liquid under reduced pressure, it was suspended in water (0.4 ml) and then was extracted with n-BuOH (4 ml and 1 ml). All of the extracts, their aqueous fractions and n-BuOH fractions obtained by liquid-liquid partition thereof were heated at 160° C. for 40 minutes.
(§1) In the result, the production of chafurosides A and B by heating was detected only in all of the extracts and their aqueous fractions.

Water solubility = type: physicochemical
Text: Considering the fact that sulfation has been correlated with mechanism of detoxification elimination in metabolism, the presence of precursors of chafuroside which are sulfated derivatives in tea leaves has great significance. As for isovitexin and vitexin, their anticancer effect, effect of reducing damages by UV irradiation, inhibiting effect of COX, antioxidant effect, antianxiety effect and the like have been drawing the attention recently.
as §1

| SMILES | activity in atopic disease model [1] | fraction after liquid-liquid partition water / n-butanol [3] | solubility in water (Water solubility; qualitative) | solubility in water (Water solubility) | also measured |
| --- | --- | --- | --- | --- | --- |
| O=c1cc(-c2ccc(O)cc2)oc2cc3c(c(O)c12)[C@@H]1O[C@H](CO)[C@@H](O)[C@H](O)[C@@H]1O3 [chafuroside A] | exhibiting activities via oral administration |  |  |  | dermal inflammation-inhibiting activity ([1]; 10 μg/kg, comparable with Prednisolone (10 mg/kg) and Betamethasone (0.8 mg/kg)): significant dermal inflammation-inhibiting activity; inhibiting activity against intestinal polyp formation [2]: effectively-inhibiting activity |
| O=c1cc(-c2ccc(O)cc2)oc2cc(O)c([C@@H]3O[C@H](CO)[C@@H](O)[C@H](O)[C@H]3O)c(O)c12 [isovitexin] |  | move to the n-butanol solvent fraction | very poorly soluble in water |  | fraction after liquid-liquid partition water / n-butanol ([3]; listed as Isovitexin): move to n-BuOH fractions |
| O=c1cc(-c2ccc(O)cc2)oc2c([C@@H]3O[C@H](CO)[C@@H](O)[C@H](O)[C@H]3O)c(O)cc(O)c12 [vitexin] |  | move to n-BuOH fractions; also recorded: move to the n-butanol solvent fraction | very poorly soluble in water |  |  |
| O=c1cc(-c2ccc(O)cc2)oc2c3c(cc(O)c12)O[C@H]1[C@@H](O)[C@H](O)[C@@H](CO)O[C@@H]31 [chafuroside B] | exhibiting activities via oral administration |  |  |  |  |
| O=c1cc(-c2ccc(O)cc2)oc2c([C@@H]3O[C@H](CO)[C@@H](O)[C@H](O)[C@H]3OS(=O)(=O)O)c(O)cc(O)c12 [prechafuroside B, vitexin 2″-O-sulfate] |  |  |  | high water solubility |  |
| O=c1cc(-c2ccc(O)cc2)oc2cc(O)c([C@@H]3O[C@H](CO)[C@@H](O)[C@H](O)[C@H]3OS(=O)(=O)O)c(O)c12 [prechafuroside A, isovitexin 2″-O-sulfate] |  |  |  | high water solubility |  |
